Assay results from PubChem BioAssay AID248 (DTP/NCI, 2004).
Several values for one entry are separate records, joined by “and”; a condition that tells them apart may be missing. Equal values may be shown once. Inconclusive results and toxic doses are left out. Cut-off read from the data, not from the text of the source: active = T/C of 150% or more; inactive = T/C below 125%.

Test system: L1210 leukemia ip in BDF1 mice, survival T/C
Assay: NCI In Vivo Anticancer Drug Screen. Data for tumor model L1210 Leukemia (intraperitoneal) in B6D2F1 (BDF1) mice
Conditions: endpoint: mean survival time, higher = longer survival
Procedure, shortened: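 Antitumor effect is assessed in tumor-bearing animals. Survival in the compound arm is compared with a vehicle-dosed control arm and expressed as their quotient.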

[1] = dose: 100.0 mg/kg/injection, schedule: Q04DX003 (ip), vehicle: Klucel (hydroxypropylcellulose) (HPC)
[2] = dose: 200.0 mg/kg/injection, schedule: Q04DX003 (ip), vehicle: Klucel (hydroxypropylcellulose) (HPC)
[3] = dose: 100.0 mg/kg/injection, schedule: Q04DX003 (ip), vehicle: saline with Tween-80
[4] = dose: 100.0 mg/kg/injection, schedule: Q04DX003 (ip), vehicle: saline
[5] = dose: 200.0 mg/kg/injection, schedule: Q04DX003 (ip), vehicle: saline with Tween-80
[6] = dose: 200.0 mg/kg/injection, schedule: Q04DX003 (ip), vehicle: saline
[7] = dose: 400.0 mg/kg/injection, schedule: Q04DX003 (ip), vehicle: saline with Tween-80
[8] = dose: 400.0 mg/kg/injection, schedule: Q04DX003 (ip), vehicle: saline
[9] = dose: 50.0 mg/kg/injection, schedule: Q01DX001 (ip), vehicle: saline
[10] = dose: 100.0 mg/kg/injection, schedule: Q01DX001 (ip), vehicle: saline
[11] = dose: 200.0 mg/kg/injection, schedule: Q01DX001 (ip), vehicle: saline
[12] = dose: 400.0 mg/kg/injection, schedule: Q01DX001 (ip), vehicle: saline
[13] = dose: 100.0 mg/kg/injection, schedule: Q01DX009 (ip), vehicle: saline with Tween-80
[14] = dose: 200.0 mg/kg/injection, schedule: Q01DX009 (ip), vehicle: saline with Tween-80
[15] = dose: 400.0 mg/kg/injection, schedule: Q01DX009 (ip), vehicle: saline with Tween-80
[16] = dose: 100.0 mg/kg/injection, schedule: Q04DX002 (ip), vehicle: Klucel (hydroxypropylcellulose) (HPC)
[17] = dose: 50.0 mg/kg/injection, schedule: Q01DX009 (ip), vehicle: Klucel (hydroxypropylcellulose) (HPC)
[18] = dose: 100.0 mg/kg/injection, schedule: Q01DX009 (ip), vehicle: Klucel (hydroxypropylcellulose) (HPC)

Measured: T/C

COc1ccc(OC)c(NC(=O)c2cccc([N+](=O)[O-])c2)c1
inactive: dose: 100.0 mg/kg/injection, schedule: Q01DX001 (ip), vehicle: carboxymethylcellulose (CMC) 94 % of control | dose: 200.0 mg/kg/injection, schedule: Q01DX001 (ip), vehicle: carboxymethylcellulose (CMC) 100 % of control | dose: 400.0 mg/kg/injection, schedule: Q01DX001 (ip), vehicle: carboxymethylcellulose (CMC) 94 % of control

CCC(CCC(C)C1CCC2C3CC=C4CC(OC5OC(CO)C(O)C(O)C5O)CCC4(C)C3CCC12C)C(C)C (stereo not given)
inactive: dose: 100.0 mg/kg/injection, schedule: Q01DX Z (ip), vehicle: Klucel (hydroxypropylcellulose) (HPC) 92 % of control | [1] 106 % of control | dose: 200.0 mg/kg/injection, schedule: Q01DX Z (ip), vehicle: Klucel (hydroxypropylcellulose) (HPC) 91 % of control | [2] 104 % of control | dose: 400.0 mg/kg/injection, schedule: Q01DX Z (ip), vehicle: Klucel (hydroxypropylcellulose) (HPC) 91 % of control | dose: 400.0 mg/kg/injection, schedule: Q04DX003 (ip), vehicle: Klucel (hydroxypropylcellulose) (HPC) 90 % of control

N#C/C(=C\c1c[nH]c2ccccc12)C(N)=O
inactive: dose: 50.0 mg/kg/injection, schedule: Q04DX003 (ip), vehicle: saline 104 % of control | [3] 93 % of control | [4] 107 % of control | [5] 104 % of control | [6] 95 % of control | [7] 96 % of control | [8] 97 % of control

O=c1o[nH]c(-c2ccccc2)c1-c1ccccc1
inactive: dose: 1.56 mg/kg/injection, schedule: Q04DX003 (ip), vehicle: saline 98 % of control | dose: 3.12 mg/kg/injection, schedule: Q04DX003 (ip), vehicle: saline 102 % of control | dose: 6.25 mg/kg/injection, schedule: Q04DX003 (ip), vehicle: saline 102 % of control | dose: 12.5 mg/kg/injection, schedule: Q04DX003 (ip), vehicle: saline 94 % of control | [5] 93 % of control

CCCCCCC1c2ccccc2CC1CCCC (stereo not given)
inactive: [9] 102 % of control | [10] 104 % of control | [11] 102 % of control | [12] 98 % of control

C[CH2][Ge]([CH2]C)[O][Ge]([CH2]C)[CH2]C.C[CH2][Ge]([CH2]C)[O][Ge]([CH2]C)[CH2]C
inactive: dose: 5.0 mg/kg/injection, schedule: Q04DX002 (ip), vehicle: saline with Tween-80 96 % of control | dose: 10.0 mg/kg/injection, schedule: Q04DX002 (ip), vehicle: saline with Tween-80 96 % of control | dose: 20.0 mg/kg/injection, schedule: Q04DX002 (ip), vehicle: saline with Tween-80 100 % of control

CC(=O)O[C@H]1CC[C@]2(C)C3=C([C@@H](OO)C[C@H]2C1(C)C)[C@]1(C)CC[C@H]([C@H](C)CCCC(C)C)[C@@]1(C)CC3
inactive: dose: 100.0 mg/kg/injection, schedule: Q01DX001 (ip), vehicle: other 97 % of control | dose: 200.0 mg/kg/injection, schedule: Q01DX001 (ip), vehicle: other 95 % of control | dose: 400.0 mg/kg/injection, schedule: Q01DX001 (ip), vehicle: other 95 % of control

Cc1ccc(S(=O)(=O)N/N=C/C(O)C(O)C(O)C(O)CO)cc1 (stereo not given)
inactive: [13] 102 % of control | [14] 102 % of control | [15] 100 % of control

CC(=O)OC1CCC2(C)C(=CCC3C2CCC2(C)C3CC3C(c4ccccc4)=NN(c4ccccc4)C32C(C)=O)C1 (stereo not given)
inactive: [16] 92 % of control | dose: 200.0 mg/kg/injection, schedule: Q04DX002 (ip), vehicle: Klucel (hydroxypropylcellulose) (HPC) 103 % of control | dose: 400.0 mg/kg/injection, schedule: Q04DX002 (ip), vehicle: Klucel (hydroxypropylcellulose) (HPC) 92 % of control

Nc1ccn(C2CCCO2)c(=O)n1 (stereo not given)
inactive: [9] 101 % of control | [10] 95 % of control | [11] 95 % of control | [12] 95 % of control

O=c1c(-c2ccccc2)c(-c2ccccc2)c1=O
inactive: dose: 75.0 mg/kg/injection, schedule: Q01DX001 (ip), vehicle: saline 91 % of control | dose: 150.0 mg/kg/injection, schedule: Q01DX001 (ip), vehicle: saline 96 % of control

N#CCCC(C#N)(C#N)CCC#N
inactive: dose: 175.0 mg/kg/injection, schedule: Q01DX001 (ip), vehicle: saline 97 % of control | dose: 265.0 mg/kg/injection, schedule: Q01DX001 (ip), vehicle: saline 100 % of control | [12] 96 % of control | dose: 600.0 mg/kg/injection, schedule: Q01DX001 (ip), vehicle: saline 91 % of control

N#CC(C#N)=Cc1cc2c3c(c1)CCCN3CCC2
inactive: dose: 50.0 mg/kg/injection, schedule: Q04DX003 (ip), vehicle: saline with Tween-80 103 % of control | [3] 109 % of control | [5] 92 % of control | [7] 98 % of control

CC1C(=O)OC2C1CCC1(C)C=CC(=O)C3(C)OC213 (stereo not given)
inactive: dose: 100.0 mg/kg/injection, schedule: Q01DX001 (ip), vehicle: Klucel (hydroxypropylcellulose) (HPC) 97 % of control | dose: 200.0 mg/kg/injection, schedule: Q01DX001 (ip), vehicle: Klucel (hydroxypropylcellulose) (HPC) 94 % of control | dose: 400.0 mg/kg/injection, schedule: Q01DX001 (ip), vehicle: Klucel (hydroxypropylcellulose) (HPC) 96 % of control

CC1(C)CCSC(/C=C/c2ccccc2)=N1
inactive: [4] 100 % of control | [6] 102 % of control | [8] 103 % of control

c1ccc2c3csc4ccccc4c-3nc2c1
inactive: dose: 6.25 mg/kg/injection, schedule: Q01DX009 (ip), vehicle: saline 97 % of control | dose: 12.5 mg/kg/injection, schedule: Q01DX009 (ip), vehicle: saline 101 % of control | dose: 12.5 mg/kg/injection, schedule: Q04DX003 (ip), vehicle: Klucel (hydroxypropylcellulose) (HPC) 94 % of control | dose: 25.0 mg/kg/injection, schedule: Q01DX009 (ip), vehicle: saline 103 % of control | dose: 25.0 mg/kg/injection, schedule: Q04DX003 (ip), vehicle: Klucel (hydroxypropylcellulose) (HPC) 94 % of control | dose: 35.0 mg/kg/injection, schedule: Q01DX009 (ip), vehicle: Klucel (hydroxypropylcellulose) (HPC) 91 % of control

O=C(NC1CCCCC1)NC1CCCCC1
inactive: [13] 95 % of control | [14] 88 % of control | [15] 87 % of control

CCC(C)C(C#N)(CCN(CC)CC)c1ccccc1 (stereo not given)
inactive: [17] 104 % of control | [18] 100 % of control | [1] 111 % of control | [2] 103 % of control

COC(=O)c1ccccc1NC(=O)c1cccc(Cl)c1
inactive: [18] 114 % of control | dose: 200.0 mg/kg/injection, schedule: Q01DX009 (ip), vehicle: Klucel (hydroxypropylcellulose) (HPC) 118 % of control | dose: 400.0 mg/kg/injection, schedule: Q01DX009 (ip), vehicle: Klucel (hydroxypropylcellulose) (HPC) 102 % of control

CCNC(=S)NCC
inactive: dose: 100.0 mg/kg/injection, schedule: Q04DX003 (ip), vehicle: carboxymethylcellulose (CMC) 98 % of control | dose: 200.0 mg/kg/injection, schedule: Q04DX003 (ip), vehicle: carboxymethylcellulose (CMC) 102 % of control | dose: 400.0 mg/kg/injection, schedule: Q04DX003 (ip), vehicle: carboxymethylcellulose (CMC) 107 % of control

CC1CCC(C(C)C)C(OC(=O)Nc2ccc(S(=O)(=O)N(C)C)cc2)C1 (stereo not given)
inactive: [10] 94 % of control | [11] 89 % of control | [12] 91 % of control

Cc1cn2ccccc2c[n+]1=O
inactive: dose: 5.0 mg/kg/injection, schedule: Q01DX009 (ip), vehicle: saline sonified 98 % of control | dose: 10.0 mg/kg/injection, schedule: Q01DX009 (ip), vehicle: saline sonified 98 % of control | dose: 20.0 mg/kg/injection, schedule: Q01DX009 (ip), vehicle: saline sonified 87 % of control

O=C(Nc1ccc(Cl)cc1)Oc1c(Cl)cc(S(=O)(=O)F)cc1Cl
inactive: dose: 25.0 mg/kg/injection, schedule: Q04DX002 (ip), vehicle: Klucel (hydroxypropylcellulose) (HPC) 94 % of control | [17] 97 % of control | dose: 50.0 mg/kg/injection, schedule: Q04DX002 (ip), vehicle: Klucel (hydroxypropylcellulose) (HPC) 91 % of control | [18] 97 % of control | [16] 99 % of control and 91 % of control

CN(C)C(=O)C1C2C=CC(C2)C1C(=O)N(C)C (stereo not given)
inactive: [3] 98 % of control | [5] 95 % of control | [7] 98 % of control
